Tests used:
[1] = HCV replicon assay, cell viability (CytoTox-1); type: cell-based; conditions: human, Huh7 hepatoma cells containing a subgenomic HCV replicon, In vitro HCV replicon assay, post-infection, read-out: CC50 (concentration decreasing cell viability by 50%)
Protocol: (§1) Stable HCV replicons of different genotypes may be used for anti-HCV evaluation. We used the subgenomic HCV replicons of genotype 1a (H77 strain), 1b (Con1 strain), and 2a (JFH-1 strain), which are Huh7 human hepatoma cell lines that contains an HCV replicon.
Briefly, the replicon cells were plated at 5,000 cells/well into 96-well plates that were dedicated for the analysis of cell numbers (cytotoxicity) or antiviral activity. On the following day, samples were diluted with assay media and added to the appropriate wells. Cells were processed 72 hours later when the cells were still sub-confluent. For the luciferase endpoint assay, HCV replicon levels were assessed as replicon-derived Luc activity. The concentration of drug that reduced cell viability was assessed by the fluorometric CytoTox-1 cell proliferation assay (Promega), (expressed as cell numbers). For the qRT-PCR/TaqMan assay, total RNA was extracted from the replicon cells using RNeasy 96 kit (Qiagen) according to the manufacturer's protocol. Real-time RTPCR/TaqMan assays were performed to measure copy numbers of the replicon RNA and cellular ribosomal RNA. […]

[2] = test system: cell culture-derived HCV (HCVcc); assay: microbe, parasite or virus in culture; type: cell-based, hepatitis C virus
Protocol: (§2) Huh7.5 cells were grown in Dulbecco's modified essential media (DMEM), 10%0/fetal bovine serum (FBS), 1% penicillin-streptomycin (pen-strep), 1% Non-essential amino acids (NEAA) in a 5% CO2 incubator at 37° C. Huh7.5 cells were seeded at 1×10^4 cells per well into 96-well plates according to Southern Research Institute standard format. Test articles were serially diluted with DMEM plus 5% FBS. The diluted compound in the amount of […] was mixed with equal volume of cell culture-derived HCV (HCVcc), then applied to appropriate wells in the plate. Human interferon alpha-2b (rIFNα-2b) and/or Sofosbuvir were included as a positive control. After 72 hr incubation at 37° C., the cells were lysed for measurement of luciferase activity using Renilla Luciferase Assay System (Promega) according to manufacturer's instruction. The number of cells in each well were determined by CytoTox-1 reagent (Promega). Test articles were tested at 6 serial dilutions in triplicate to derive, if applicable, EC50 and EC90 (concentration inhibiting HCVcc infectivity by 50% and 90%, respectively), CC50 (concentration decreasing cell viability by 50%) and SI (selectivity index: CC50/EC50) values (Table 1).

HCV replicon = HCV replicon assay (antiviral activity, luciferase endpoint); type: cell-based, hepatitis C virus
Source text: as §1
The HCV replicon antiviral evaluation assay examined the effects of compounds at six serial dilutions. Human interferon alpha-2b (rIFNα-2b) and/or Sofosbuvir were included in each run as a positive control compound.
Briefly, the replicon cells were plated at 5,000 cells/well into 96-well plates that were dedicated for the analysis of cell numbers (cytotoxicity) or antiviral activity. On the following day, samples were diluted with assay media and added to the appropriate wells. Cells were processed 72 hours later when the cells were still sub-confluent. For the luciferase endpoint assay, HCV replicon levels were assessed as replicon-derived Luc activity. The concentration of drug that reduced cell viability was assessed by the fluorometric CytoTox-1 cell proliferation assay (Promega), (expressed as cell numbers). For the qRT-PCR/TaqMan assay, total RNA was extracted from the replicon cells using RNeasy 96 kit (Qiagen) according to the manufacturer's protocol. Real-time RTPCR/TaqMan assays were performed to measure copy numbers of the replicon RNA and cellular ribosomal RNA. Where applicable EC50 (concentration inhibiting HCV replicon by 50%), EC90 (concentration inhibiting HCV replicon by 90%), CC50 (concentration decreasing cell viability by 50%), CC90 (concentration decreasing cell viability by 90%) and SI (selectivity indices: CC50/EC50 and CC90/EC90) values were derived.

in vitro = type: cell-based; conditions: human
Protocol: as §2

SMILES: COC(=O)C1=C(C)NC(C)=C(C(=O)OC(C)C)C1c1cccc2nonc12 (centres unmarked) [Isradipine, isradipine]
- CC50 at 72 h [1]: 50.8 µM
- EC50 ([2]; Hepatitis C virus, Huh7.5, 72 h, read-out: EC50 (concentration inhibiting HCVcc infectivity by 50%)): 12.6 µM
- Selectivity index (CC50/EC50) ([2]; In vitro HCV cc assay, pre-infection): 4.07
- anti-Hepatitis C activity (in words) ([2]; hepatitis C viral infectivity assay): significant anti-Hepatitis C activity
- anti-Hepatitis C activity (in words) (HCV replicon; HCV replicon assay): significant anti-Hepatitis C activity
- EC50 (HCV replicon; Hepatitis C virus, GT1B, 72 h, read-out: EC50 (concentration inhibiting HCV replicon by 50%)): 51.4 µM
- Selectivity index (CC50/EC50) (HCV replicon; In vitro HCV replicon assay, post-infection): 0.99
- CC50 at 72 h (in vitro): 51.2 µM

— patent US20180092895A1, “METHOD OF TREATMENT OF HEPATITIS C” (priority 2016, published 2018)
